Drawing on the METLIN SMRT retention time set (Domingo-Almenara et al. 2019), this text covers RP-LC retention time for 60 molecules.

Structures are written as SMILES.

A short description of this series: gradient 5% acetonitrile 3 min, to 50% in 2 min, to 85% in 15 min, held 3 min, 100 µL/min. To be noted: column: Zorbax Extend-C18 2.1 x 50 mm; eluents: water / acetonitrile, 0.1% formic acid. The method in brief: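 In both positive and negative ionization mode, a quadrupole time-of-flight mass spectrometer coupled to HPLC analyzed pure standards run in mixtures of ~100 molecules. The Zorbax Extend-C18 column (2.1 × 50 mm, 1.8 μm) was operated at 100 μL/min with water and acetonitrile, each containing 0.1% formic acid. The dead volume was 40 μL and the dwell volume 900 μL. Retention time came from adduct peaks that were computationally picked and individually inspected by hand.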
`COc1ccc(Cl)cc1NS(=O)(=O)c1ccc(-c2nnc(C3CCC3)o2)o1`: the RP-LC retention time was found to be 958 s.
The value for `CCOC(CNCc1cc(C)c2[nH]c3ccccc3c2c1C)OCC` was 812 s.
To `CCOC(=O)c1nnc2c(-c3ccc(F)cc3)c(C)nn2c1N` belongs 857 s.
The value for `COc1ccc(Cn2nc3ccc(S(=O)(=O)N4CCCC4)cn3c2=O)cc1F` was 862 s; that for `NC(=O)c1ccc(-n2cccc2)nc1` was 650 s; that for `COc1cccc(CNc2ccc3[nH]c(=O)[nH]c3c2)c1OC` was 593 s.
`Cc1nn(-c2nc(-c3ccc(F)cc3)cs2)c(C)c1CC(=O)Nc1ccccc1`: the RP-LC retention time came to 1150 s.
To `CC(=O)N1CCc2cc(N3CC(C(=O)Nc4ccccc4F)CC3=O)ccc21` (stereo not given) belongs 690 s; to `COC(=O)CNC(=O)N1CCCC1c1cccc(F)c1` (stereo not given), 701 s.
The value for `CCn1cc(C(=O)NCc2ccccc2)c(S(=O)(=O)N2CCSCC2)n1` was 880 s; that for `CC1(C(=O)NC2CCCCCCC2)CN(S(C)(=O)=O)CC(=O)N1Cc1cccc(F)c1` (stereo not given) was 956 s; that for `Cc1c(CN2CCC(N(C(=O)NCCc3ccccc3)C3CCOCC3)CC2)cnn1C` was 627 s.
The value for `COc1cccc(NC(=O)NC2CCN(c3cc(C)cc(C)c3)C2=O)c1` (stereo not given) was 870 s; that for `Cn1ccc2c(cc(C(=O)NCCC3=CCCCC3)n2C)c1=O` was 766 s; that for `CCOC(=O)C1CCN(S(=O)(=O)c2cc3n(c2)CCCNC3=O)CC1` was 652 s.
In turn, `Cc1ccc(C)c(Cn2nc3c(S(=O)(=O)N4CCN(c5ccc(F)cc5)CC4)cccn3c2=O)c1` had an RP-LC retention time of 1050 s.
The value for `Cc1cc(C)cc(NC(=O)C2CCCN2S(=O)(=O)c2cc3c(cc2C)NC(=O)CO3)c1` (stereo not given) was 815 s; that for `O=C(CCCc1c[nH]c2ccccc12)NCCc1c[nH]c2ccccc12` was 830 s; that for `Cc1csc(-c2cc(S(=O)(=O)Nc3cc(F)ccc3F)cn2CC(=O)N2CCCC2)n1` was 874 s.
To `CCCCNC(=O)C1CCN(S(C)(=O)=O)c2ccccc2O1` (stereo not given) belongs 728 s.
For `O=C(Nc1ccccc1C(=O)NCCCN1CCN(C2CCCCC2)CC1)C1=CSCCO1`, the RP-LC retention time turned out to be 608 s.
To `COCCc1noc(C2Cc3ccccc3N2C(=O)NCc2ccco2)n1` (stereo not given) belongs 807 s; to `CCCN(C(=O)c1cccc(F)c1)c1nc(-c2ccccc2)cs1`, 1310 s.
`CCn1cc(CCN2CCC(C(=O)N3CCCCC3)CC2)c2cccnc21` had an RP-LC retention time of 587 s.
To `CCCNC(=O)N(C1CCOCC1)C1CCN(S(=O)(=O)c2cc(F)ccc2C)CC1` belongs 897 s.
Molecule `Cc1ccc(NC(=O)Cn2nc(N(C)C)c3ccccc3c2=O)cc1F` yielded an RP-LC retention time of 920 s.
`CS(=O)(=O)N1CCC(C(=O)Nc2ccc(Oc3ccccc3)cc2)Oc2ccccc21` (stereo not given): the RP-LC retention time was found to be 1030 s.
The value for `COc1ccc(-c2noc(-c3ccc(N4CCN(c5ncccn5)CC4)nc3)n2)cc1` was 1150 s; that for `O=C(c1cccs1)N1CCN(c2cc(Cl)ccc2Cl)CC1` was 1020 s; that for `O=C(CSc1nnc(CNC(=O)c2cccc(C(F)(F)F)c2)o1)NCC1CCCO1` (stereo not given) was 664 s.
In turn, `CC1CCc2nn(CC(=O)NCCCN(Cc3ccccc3)C(C)C)cc2C1` (stereo not given) came in with an RP-LC retention time of 592 s.
The value for `O=C(C1CCCN1c1nnc(N2CCCC2=O)s1)N1CCN(c2ccccn2)CC1` (stereo not given) was 547 s; that for `COc1ccc(-c2noc(C3CCCN3C(=O)c3ccc(C)s3)n2)cc1` (stereo not given) was 996 s; that for `CCOC(=O)CNC(=O)Nc1ccc2nc(N3CCOCC3)cc(C)c2c1` was 582 s.
Regarding `O=C(CCC1CCN(S(=O)(=O)c2cccc(F)c2)CC1)NC1CC1`, the RP-LC retention time was 781 s.
To `Cc1ccccc1Cn1c2ccccc2c2cnn(CC(=O)NCc3ccco3)c(=O)c21` belongs 975 s; to `COc1ccc(-c2noc(C3CCCN3C(=O)c3cc(OC)c(OC)c(OC)c3)n2)cc1OC` (stereo not given), 828 s; to `COc1ccc(-c2nc(C)cc3nn(CC(=O)Nc4cccc(OC)c4)c(=O)n23)cc1`, 800 s.
The value for `Cc1sc(-c2noc(C3CCC3)n2)cc1S(=O)(=O)N1CCC(C(=O)N2CCCCCC2)CC1` was 1180 s.
To `CCCN(C(=O)CC(=O)OC)c1nc(-c2ccc(C)cc2)cs1` belongs 1160 s; to `O=C(NCCc1c[nH]c2ccc(Cl)cc12)c1cn2cc(Cl)ccc2n1`, 886 s; to `CC(C)(C)c1cc(C(=O)NC2CCCCC2)nc2ccnn12`, 1240 s.
Take `CCC(=O)N1CCc2c(C(=O)N3CCN(c4ccccc4)CC3)cccc21`: the RP-LC retention time was 829 s.
To `Cc1cc(N2CCN(C(=O)c3ccc(Br)cc3)CC2)nc2nnc(C)n12` belongs 563 s; to `Cn1nc(C(=O)N2CCCC(C(=O)NC3CC3)C2)c2c1CCN(C(=O)COc1ccccc1)C2` (stereo not given), 644 s; to `CCc1ccc(S(=O)(=O)c2cnc(N3CCN(c4cc(C)ccc4C)CC3)nc2N)cc1`, 1400 s.
To `CCCN(C(=O)c1c(C)oc2nc(C)nc(N3CCOCC3)c12)c1ccc(OCC)cc1` belongs 902 s; to `Cc1cc(C)n(CCC(=O)N2CC(Oc3ccc(-c4nc(-c5ccccc5)no4)cc3)C2)n1`, 1020 s; to `CCn1cc(-c2nc(C(=O)N3CCN(c4ccc(OC)cc4)CC3)cs2)c2cccnc21`, 887 s.
`COc1ccccc1CC(=O)N1CCCn2nc(-c3ccc(C)cc3)cc2C1` gave an RP-LC retention time of 930 s.
The molecule `COc1ccc(NC(=O)N2CCC3(CC2)NC(=O)c2ccccc2N3C)c(C)c1` yielded an RP-LC retention time of 781 s.
For `CCN1CCN(c2ncnc3sc(C(=O)NCCCOC)c(C)c23)CC1`, the RP-LC retention time is 563 s.
The value for `CC1CC(=O)c2cnc(N3CCN(c4ccccc4)CC3)nc2C1` (stereo not given) was 1080 s; that for `COc1ccc(-c2nnc(-c3cccc(S(=O)(=O)N4CCC(C)CC4)c3)o2)cc1OC` was 1050 s.
The value for `CC(=O)Nc1cccc(-c2nc(-c3ccc4nnn(C(C)C)c4c3)no2)c1` was 859 s.
The value for `O=C(C1CCCN(c2ncnc3c2nc2n3CCCCC2)C1)N1CCOCC1` (stereo not given) was 1270 s; that for `COc1ccc(C(C)NC(=O)Cc2c[nH]c3ncccc23)cc1` (stereo not given) was 614 s; that for `O=C(CN1CCN(Cc2ccccc2F)C1=O)NCc1ccccc1Br` was 853 s.
Regarding `CCS(=O)(=O)N1CCCN(c2ccc(=O)n(-c3ccc(C)cc3)n2)CC1`, the RP-LC retention time was determined as 751 s.
Regarding `O=C(Cc1ccccc1Br)N1CCN(Cc2nncn2C2CCCCC2)CC1`, the RP-LC retention time is 642 s.
